Test [1] has as its system rat adjuvant-induced arthritis. In words: Inhibitory Action on Adjuvant Arthritis (1) (Assay Example 2). The class given is in vivo, male Fisher rats. Particulars: oral 5 mg/kg; for % Inhibition against Change in Relative Weight, Spleen / % Inhibition against Change in Relative Weight, Thymus: 7 times, relative weight per 100 g body weight, day 21; for % Inhibition against Reduction of Gain in Body Weight / Edema Inhibition (%) Left Hind Paw (Non-inflamed Paw) / Edema Inhibition (%) Right Hind Paw (Inflamed Paw) / Inflammation Score Inhibition (%): days 0, 3, 7, 10, 14, 17, 20; for % Inhibition against Reduction of Gain in Body Weight / Edema Inhibition (%) Left Hind Paw (Non-inflamed Paw) / Edema Inhibition (%) Right Hind Paw (Inflamed Paw): measured day 21; for Inflammation Score Inhibition (%): scored day 21.
Description: Dry Mycobacterium butyricum killed organisms (Difco) were suspended in liquid paraffin to make the concentration 1% and the resulting suspension used as an adjuvant. The adjuvant (50 μl) was subplantarly injected to the right hind paw of male Fisher rats (5 to 6 animals per group) to raise arthritis. Each test compound was suspended in a 0.5% aqueous sodium carboxymethylcellulose (CMC-Na) solution and orally administered to the rats at a dose of 5 mg/kg on days 0, 3, 7, 10, 14, 17 and 20 (7 times in total) after the arthritis induction. On the 21st disease day the rats were measured for their body weight and the edema of their right and left hind paws. Simultaneously, systemic inflammatory states were scored. In addition, each of their spleen and thymus was taken out by excision to measure their wet weight and their relative weight per 100 g body weight was calculated.

In the next test the target is T1, COX-1 (Ovis aries, UniProt P05979).
T1 construct: purchased Cayman Chemical Co
T1 sequence (P05979 25-600): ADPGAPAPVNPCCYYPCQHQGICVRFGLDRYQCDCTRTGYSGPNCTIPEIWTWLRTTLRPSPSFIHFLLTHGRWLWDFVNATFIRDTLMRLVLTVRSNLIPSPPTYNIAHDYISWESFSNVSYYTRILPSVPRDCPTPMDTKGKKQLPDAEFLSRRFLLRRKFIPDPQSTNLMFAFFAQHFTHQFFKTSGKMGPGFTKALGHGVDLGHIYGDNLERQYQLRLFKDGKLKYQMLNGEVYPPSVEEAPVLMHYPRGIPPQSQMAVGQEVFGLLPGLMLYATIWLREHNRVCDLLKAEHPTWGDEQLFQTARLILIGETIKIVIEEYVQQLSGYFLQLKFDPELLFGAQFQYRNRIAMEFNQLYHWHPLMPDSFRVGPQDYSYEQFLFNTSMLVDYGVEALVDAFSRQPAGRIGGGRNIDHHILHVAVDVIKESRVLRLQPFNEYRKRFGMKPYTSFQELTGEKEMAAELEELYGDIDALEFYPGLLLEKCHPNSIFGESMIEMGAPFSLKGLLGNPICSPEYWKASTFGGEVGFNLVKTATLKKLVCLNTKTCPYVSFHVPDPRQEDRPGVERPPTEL
In words: Inhibitory Activity on COX-1 (Assay Example 1). Type of test: biochemical. The settings on record: Table 1; read-out: COX Inhibiting Activity IC50, COX-1.

In test [2] the test system is acetic acid writhing in male ddY mice. In words: Analgesic Action in Acetic Acid Writhing (Assay Example 3). The class given is in vivo. Particulars: 10 mg/kg oral. As for the experimental part:
A 0.7% acetic acid solution was intraperitoneally administered to male ddY mice at a dose of 10 ml/kg body weight. The frequency of writhing manifested was counted as an index of pains for a period of 10 minutes starting from the 10th minute after the administration. Ten or thirty minutes prior to the acetic acid administration, each test compound was orally given.
A general note: Writhing tests count abdominal constrictions after an irritant is injected.

For the next test, the target named is T2, COX-2 (Ovis aries, UniProt P79208).
T2 construct: purchased Cayman Chemical Co
T2 sequence (P79208 17-603): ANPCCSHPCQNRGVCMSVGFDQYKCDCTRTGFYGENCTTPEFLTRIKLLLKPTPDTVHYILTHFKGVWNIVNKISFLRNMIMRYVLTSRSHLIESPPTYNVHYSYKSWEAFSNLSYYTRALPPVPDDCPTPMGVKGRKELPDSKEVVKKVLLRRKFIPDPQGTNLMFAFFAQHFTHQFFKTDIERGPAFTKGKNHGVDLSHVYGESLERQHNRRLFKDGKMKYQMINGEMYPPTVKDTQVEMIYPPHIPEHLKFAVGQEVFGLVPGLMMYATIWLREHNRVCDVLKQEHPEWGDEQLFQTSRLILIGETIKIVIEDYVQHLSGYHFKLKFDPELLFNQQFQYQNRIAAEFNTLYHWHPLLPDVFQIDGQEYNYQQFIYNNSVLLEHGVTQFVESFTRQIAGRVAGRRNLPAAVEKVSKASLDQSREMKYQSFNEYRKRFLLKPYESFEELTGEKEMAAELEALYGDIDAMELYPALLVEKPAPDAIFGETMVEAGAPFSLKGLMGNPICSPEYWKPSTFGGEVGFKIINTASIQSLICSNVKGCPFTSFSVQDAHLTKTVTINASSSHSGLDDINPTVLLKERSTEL
As to the kind of experiment: Inhibitory Activity on COX-2 (Assay Example 1). The class given is biochemical. The settings on record: Table 1; for IC50: read-out: COX Inhibiting Activity IC50, COX-2.

Test [3] relates to oxazolone-induced dermal delayed type hypersensitivity (IV-type allergy). As to the kind of experiment: Inhibitory Action on Oxazolone-Induced Dermal Delayed Type Hypersensitivity (Assay Example 8). The class given is in vivo, mice. The settings on record: for edema inhibition / increase in edematized auricle thickness: 4 days, 24 hours after challenge; for increase in edematized auricle thickness: control (0.12±0.03) mm. The method, then:
Sensitization was conducted by topically applying 150 μl of 1% oxazolone solution (ethanol:acetone=3:1) to mice (5 to 6 animals per group), the abdominal and pectral regions of which were shaved in advance. Four days after the sensitization, 10 μl of 0.8% oxazolone solution (in olive oil) was topically applied to the […] left auricle to raise the response. Twenty-four hours later the auricular thickness was measured using a dial-gauge (Mitsutoyo Co.). Values obtained by subtracting auricular thickness data prior to the challenge were taken as indexes of the response. […] One hour after the final administration, the challenge was conducted.

The test system of test [4] is Arthus reaction (III-type allergy). As to the kind of experiment: Inhibitory Action on Arthus Reaction (Assay Example 7). The settings on record: for increase in edematized left hind paw volume / edema inhibition: one hour prior to ovalbumin; for increase in edematized left hind paw volume: 2 hours, control (0.74±0.06) ml; for edema inhibition: significant, not more than 1% error level.
Description: Rat anti-ovalbumin serum was prepared by the method given below. One mg of ovalbumin was dissolved in 1 ml of physiological saline and divided to two aliquots. The ovalbumin solution was intramuscularly administered to the femoral portion of male SD rats. Simultaneously, 0.5 ml of 0.05% Mycobacterium butyricum suspension as a Freund's complete adjuvant was intraperitoneally administered to the rats. Three days later, the same treatments were repeated. On the 12th day after the initial sensitization,antisera were collected.
Two hours later, the left hind paw volume was measured using a plethysmometer and the increases in paw volume were determined by comparing with those prior to the Arthus reaction induction. […] Each compound was suspended in a 0.5% aqueous CMC-Na solution and orally administered one hour prior to the ovalbumin administration. Control groups received only a 0.5% aqueous CMC-Na solution. The test of significance was conducted by Dunnett's multiple range test.

The values below come from patent US6136831A, “Pyrazole derivatives and COX inhibitors containing them” (Grelan Pharmaceutical Co., Ltd., priority 1997, dated 2000).

In general, IC50 refers to the concentration that inhibits the measured activity by half.

In the case of `CS(=O)(=O)c1ccc(-n2nc(C(F)(F)F)cc2-c2nc3ccc(F)cc3s2)cc1` [Example 2, 6-Fluoro-2-[1-(4-methylsulfonylphenyl)-3-trifluoromethyl-1H-pyrazol-5-yl]benzothiazole], in test [1], the “% Inhibition against Change in Relative Weight, Spleen” value came to 2.5%; the “% Inhibition against Change in Relative Weight, Thymus” value is recorded as 56.7%; the “% Inhibition against Reduction of Gain in Body Weight” value stood at 75.9%; the “Edema Inhibition (%) Left Hind Paw (Non-inflamed Paw)” value was 91%. For the same compound, in test [1], the “Edema Inhibition (%) Right Hind Paw (Inflamed Paw)” value is on record as 94% and the “Inflammation Score Inhibition (%)” value was determined as 97%. The IC50 on COX-1 is greater than 100 µM. In addition, in test [2] (Administration Point 1: 10 minutes prior to acetic acid), the “% Inhibition of Writhing Response” value amounted to 49%. The “% Inhibition of Writhing Response” value in test [2] (Administration Point 2: 30 minutes prior to acetic acid) was found to be 57%. Also, at COX-2, the “COX-1/COX-2 (ratio of IC50 values)” value was greater than 263 and the IC50 was determined as 0.38 µM.
In the case of `CS(=O)(=O)c1ccc(-n2nc(C(F)(F)F)cc2-c2nc3c(F)cccc3s2)cc1` [Example 6, 4-Fluoro-2-[1-(4-methylsulfonylphenyl)-3-trifluoromethyl-1H-pyrazol-5-yl]benzothiazole], in test [1], the “% Inhibition against Change in Relative Weight, Spleen” value is reported as 42.6%; the “% Inhibition against Change in Relative Weight, Thymus” value worked out at 130.3%; the “% Inhibition against Reduction of Gain in Body Weight” value stood at 104.6%; the “Edema Inhibition (%) Left Hind Paw (Non-inflamed Paw)” value is 105%. For the same compound, in test [1], the “Edema Inhibition (%) Right Hind Paw (Inflamed Paw)” value is 84% and the “Inflammation Score Inhibition (%)” value stood at 97%. Also, in test [3] (30 mg/kg oral daily), the edema inhibition came to 48% and the “increase in edematized auricle thickness” value was 0.06±0.01 mm. For the same compound, the “action on oxazolone-induced delayed type hypersensitivity, in words” value in test [3] (index test for immunoregulating activity, IV-type allergy) is recorded as “controlling actions”. Besides, the concentration for half-maximal inhibition (IC50) on COX-1 was greater than 100 µM. On COX-2, the “COX-1/COX-2 (ratio of IC50 values)” value is reported as greater than 23.3 and the IC50 stood at 4.3 µM. In test [4] (50 mg/kg oral), the “increase in edematized left hind paw volume” value stood at 0.54 ± 0.04 mL and the edema inhibition is 27%. Moreover, the “action on Arthus reaction, in words” value in test [4] (index test for immunoregulating activity, III-type allergy) is on record as “controlling actions”.
With `C[C@]12C=CC(=O)C=C1CC[C@@H]1[C@@H]2[C@@H](O)C[C@@]2(C)[C@H]1CC[C@]2(O)C(=O)CO` [prednisolone, reference compound], in test [3] (10 mg/kg oral daily), the edema inhibition is recorded as 70% and the “increase in edematized auricle thickness” value is listed as 0.04±0.01 mm. In addition, in test [4] (10 mg/kg oral), the “increase in edematized left hind paw volume” value amounted to 0.51 ± 0.02 mL and the edema inhibition was 31%.
